Patent US5310667A (priority 1989, dated 1994)

Assays:
[1] = target: T1, petunia EPSP synthase glycine (101) to alanine variant (Petunia hybrida, UniProt P11043, G173A); experiment: EPSP synthase kinetic constants (appKi glyphosate, appKm PEP); type: biochemical
T1 construct: made in house; host or cells: E. coli
Experimental: (§1) To an assay mix (40 μl) containing shikimate-3-phosphate (2 mM), ^14 C-phosphoenolpyruvate (1 mM, 1.2 mCi/mmol), ammonium molybdate (0.1 mM), potassium fluoride (5 mM) in 50 mM HEPES-KOH, pH 7, was added the extract and incubated at 25° C. for 2 mins. The reaction was quenched by the addition of 50 μl of 50 μl of 90% ethanol/0.1M acetic acid, pH 4.5. 70 μl of the reaction mixture was loaded on a SynchroPak AX100 HPLC column (0.4×25 cm) and the column was eluted with 0.5M potassium phosphate, pH 5.5 at 1 ml/min. The radioactivity of the eluent was monitored using a Radiomatic Flo-One Beta Instrument. (Radiomatics, Fla.). The EPSP synthase activity was determined by measurement of the conversion of ^14 C-PEP to ^14 C-EPSP synthase, both of which are resolved under the above conditions of chromatography. The protein content of the extract was determined by the method of Bradford (Biorad Labs, Calif.). The specific activity of the extract is expressed as nanomoles of EPSP synthase formed/min/mg protein.
(§2) Kinetic constants (appKm PEP and appKi glyphosate) were determined for EPSP synthase as described below. Substrate kinetic parameters were determined at pH 7.0 in 50 mM HEPES (N-[2-hydroxyethyl]piperazine-N'-[2-ethanesulfonic acid]) buffer in the presence of 2 mM S3P and varying amounts of ^14 C-PEP (10 μM-400 μM), for 2.0 minutes at 25° C. Reactions were quenched with 100 mM Na Acetate in ethanol, pH 4.5, centrifuged and analyzed for product EPSP formation by HPLC with flow radioactivity detection. HPLC conditions were 0.35 MKPi, pH 6.5, on a Synchropak AX100 column at 1.0 ml/min.

[2] = target: T2, pMON8186 encoded petunia EPSP synthase variant (glycine (101) to alanine and glycine (144) to aspartic acid) (Petunia hybrida, UniProt P11043, G173A/G216D); experiment: as above; type: biochemical
T2 construct: GGT codon for glycine (144) in the mature petunia EPSP synthase; made in house; host or cells: E. coli SR481
Experimental: The balance of the #215 preculture (~750 μl) was used to inoculate 2 ml of MOPS medium containing 50 μg/ml carbenicillin and was shaken overnight at 37° C. to reach saturation. Plasmid DNA was isolated from an aliquot of the saturated culture using an alkaline lysis procedure. The plasmid was designated pMON8186. An aliquot of the pMON8186 plasmid was used to transform the E. coli host SR481 (described above) and reselected on MOPS medium containing 10 mM glyphosate and 50 μg/ml carbenicillin. A single glyphosate resistant colony of pMON8186 was picked off the selection plate and used to inoculate 3 ml of 2XYT bacterial medium containing 50 μg/ml carbenicillin. The culture was then aerated on rotating wheel at 37° C. until saturated, then it was used to inoculate a larger 500 ml culture. The large culture was grown to saturation by shaking it overnight at 37° C. in a water bath. The bacterial cells were lysed and the extracts were assayed for EPSPS activity.
Specifically, the bacterial cell paste was washed twice with 0.9% saline, suspended in buffer (100 mM Tris-HCl, 5 mM benzamidine HCl) and passed twice through the French Pressure Cell at 1000 psi. The cell extract was separated from the cells by centrifuging at 15,000 x gravity for 10 mins. at 5° C. It was desalted using Sephadex G-50 (Pharmacia, Piscataway, N.J.). The desalted extract was assayed for EPSP synthase activity as follows:
as §1, with “70 μl of the reaction mixture was loaded on a SynchroPak AX100 HPLC column (0.4×25 cm) and the column was eluted with 0.5M potassium phosphate, pH 5.5 at 1 ml/min.” left out, “(Radiomatics, Fla.).” left out
as §2, with “HPLC conditions were 0.35 MKPi, pH 6.5, on a Synchropak AX100 column at 1.0 ml/min.” left out

[3] = test system: E. coli SR481 (aroA-) carrying pMON8105; experiment: Growth on minimal medium containing glyphosate; type: cell-based
Description: (§3) Chromosomal DNA isolated from the E. coli strain SR20 (GM42 hfr, his-, dam3-) was digested completely with MboI. The MboI fragments were cloned into the BglII site of plasmid pMON9564. The BglII site is in a multilinker located upstream of the promoterless petunia EPSPS coding sequence which had been tailored for expression in E. coli. The ligation mixture was used to transform E. coli strain SR481, the aroA- variant lacking endogenous EPSPS activity. Forty-one colonies were obtained which contained MboI fragments with sufficient promoter activity to express the Petunia EPSPS cDNA, complementing the aroA defect in SR481 and supporting cell growth on minimal medium. The 41 colonies were streaked individually onto MOPS minimal medium containing glyphosate at 1, 5, 10, 15 and 20 μM concentrations. The amount of cell growth on increasing concentrations of glyphosate was used as a measure of the relative promoter strength of each MboI fragment expressing the petunia EPSPS coding sequence. To further characterize each of the MboI promoter fragments, plasmid miniprep DNA was prepared by the alkaline lysis method from each of the 41 colonies and was digested individually with EcoRI, BamHI, HindIII, ClaI and NcoI. Those restriction enzymes were chosen because they cut within, or flank the petunia EPSPS coding sequence and would be used for mobilizing mutagenized fragments. Therefore, ideal promoter fragments would not contain restriction sites for any of those enzymes. There were 8 MboI fragments with varying degrees of promoter activity which lacked restriction sites for the enzymes listed above. Two of them, pMON8105 and pMON8143, were selected for further characterization. Both plasmids complemented the aroA defect and supported the growth of SR481 on minimal medium containing up to 1 mM (pMON8105) and 20 mM (pMON8143) glyphosate.

[4] = test system: E. coli SR481 (aroA-) carrying pMON8143; experiment: Growth on minimal medium containing glyphosate; type: cell-based
Description: as §3

T1 sequence (P11043 73-516 G173A): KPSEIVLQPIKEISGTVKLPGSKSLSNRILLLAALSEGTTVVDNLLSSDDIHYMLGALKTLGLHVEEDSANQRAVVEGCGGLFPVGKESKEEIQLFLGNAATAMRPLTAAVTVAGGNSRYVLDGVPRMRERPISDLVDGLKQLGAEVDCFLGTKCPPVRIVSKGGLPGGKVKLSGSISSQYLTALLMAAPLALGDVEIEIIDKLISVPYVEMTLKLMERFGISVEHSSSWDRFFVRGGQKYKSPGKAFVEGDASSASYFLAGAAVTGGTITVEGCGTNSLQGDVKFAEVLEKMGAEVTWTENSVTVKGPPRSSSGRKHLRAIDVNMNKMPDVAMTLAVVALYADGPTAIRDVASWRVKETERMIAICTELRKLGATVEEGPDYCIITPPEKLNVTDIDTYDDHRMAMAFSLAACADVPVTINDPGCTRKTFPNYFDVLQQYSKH
T2 sequence (P11043 73-516 G173A/G216D): as the sequence (P11043 73-516 G173A) above, with G144D counted along it

SMILES: O=C(O)CNCP(=O)(O)O [glyphosate, N-phosphonomethylglycine]
- Ki [1]: 2 mM
- Ki/Km ratio ([1]; Ki glyphosate / Km PEP): 10.0
- Ki for glyphosate [2]: 0.348 mM
- Ki/Km ratio ([2]; Ki glyphosate / Km PEP): 7.7
- growth on 1 mM glyphosate ([3]; 1 mM glyphosate): could not support the growth
- glyphosate concentration up to which growth on minimal medium is supported ([3]; minimal medium): up to 1 mM
- glyphosate concentration up to which growth on minimal medium is supported [4]: ≤ 20 mM
